Measured values reported in ChEMBL document CHEMBL1201862, “PubChem BioAssay data set” (2004).
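These data come from cells grown in 96-well plates and exposed to compound for 48 hours at five concentrations. GI50: concentration for 50% inhibition of growth.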 Calls of active or inactive are those of the source. No stated cut-off is given here; in the data, active = GI50 up to about 1.1 µM and inactive = higher.

Assays:
Test in all cases: inhibition of tumour cell growth, NCI panel, 48 h
[1] = tested on: EKVX
[2] = tested on: HL-60
[3] = tested on: NCI-H23
[4] = tested on: Malme-3M
[5] = tested on: HCT-116
[6] = tested on: NCI-H226
[7] = tested on: HOP-18
[8] = tested on: LXFL 529
[9] = tested on: SR
[10] = tested on: UACC-257
[11] = tested on: SN12C
[12] = tested on: CAKI-1
[13] = tested on: M19-MEL
[14] = tested on: KM12
[15] = tested on: RPMI-8226
[16] = tested on: UO-31
[17] = tested on: UACC-62
[18] = tested on: HT-29
[19] = tested on: SF-295
[20] = tested on: DLD-1
[21] = tested on: SNB-75
[22] = tested on: OVCAR-4
[23] = tested on: K562
[24] = tested on: OVCAR-3
[25] = tested on: SK-MEL-28
[26] = tested on: 786-0
[27] = tested on: LOX IMVI
[28] = tested on: NCI-H522
[29] = tested on: COLO 205
[30] = tested on: NCI-H460
[31] = tested on: U-251
[32] = tested on: XF498
[33] = tested on: HOP-92
[34] = tested on: SK-MEL-5
[35] = tested on: RXF 393
[36] = tested on: SF-268
[37] = tested on: DMS-273
[38] = tested on: SW-620
[39] = tested on: SF-539
[40] = tested on: SNB-19
[41] = tested on: KM-20L2
[42] = tested on: DMS-114
[43] = tested on: A498
[44] = tested on: SK-OV-3
[45] = tested on: MOLT-4
[46] = tested on: CCRF-CEM
[47] = tested on: ACHN
[48] = tested on: SK-MEL-2
[49] = tested on: HOP-62
[50] = tested on: HCC 2998
[51] = tested on: IGROV-1
[52] = tested on: OVCAR-5
[53] = tested on: OVCAR-8
[54] = tested on: HCT-15
[55] = tested on: TK-10
[56] = tested on: M14
[57] = tested on: SNB-78
[58] = tested on: A549

**Q.** How did the GI50 [1] turn out when `CC(C)COC(=O)N1N=NC2C3OC(CC3=O)C21` (stereo not given) was run?
**A.** > 100 µM (inactive)

**Q.** What about the GI50 [2] of the same compound?
**A.** > 100 µM (inactive)

**Q.** And the GI50 [3]?
**A.** > 100 µM (inactive)

**Q.** What about the GI50 [4] of the same compound?
**A.** > 100 µM (inactive)

**Q.** What about the GI50 [5] of the same compound?
**A.** > 100 µM (inactive)

**Q.** And the GI50 [6]?
**A.** > 100 µM (inactive)

**Q.** What about the GI50 [7] of the same compound?
**A.** > 100 µM (inactive)

**Q.** And the GI50 [8]?
**A.** > 100 µM (inactive)

**Q.** What about the GI50 [9] of the same compound?
**A.** > 100 µM (inactive)

**Q.** What about the GI50 [10] of the same compound?
**A.** > 100 µM (inactive)

**Q.** What about the GI50 [11] of the same compound?
**A.** > 100 µM (inactive)

**Q.** What about the GI50 [12] of the same compound?
**A.** > 100 µM (inactive)

**Q.** And the GI50 [13]?
**A.** > 100 µM (inactive)

**Q.** What about the GI50 [14] of the same compound?
**A.** > 100 µM (inactive)

**Q.** What about the GI50 [15] of the same compound?
**A.** > 100 µM (inactive)

**Q.** And the GI50 [16]?
**A.** > 100 µM (inactive)

**Q.** What about the GI50 [17] of the same compound?
**A.** 43.6 µM (inactive)

**Q.** And the GI50 [18]?
**A.** > 100 µM (inactive)

**Q.** And the GI50 [19]?
**A.** > 100 µM (inactive)

**Q.** What about the GI50 [20] of the same compound?
**A.** > 100 µM (inactive)

**Q.** What about the GI50 [21] of the same compound?
**A.** > 100 µM (inactive)

**Q.** And the GI50 [22]?
**A.** > 100 µM (inactive)

**Q.** And the GI50 [23]?
**A.** > 100 µM (inactive)

**Q.** What about the GI50 [24] of the same compound?
**A.** > 100 µM (inactive)

**Q.** And the GI50 [25]?
**A.** > 100 µM (inactive)

**Q.** What about the GI50 [26] of the same compound?
**A.** > 100 µM (inactive)

**Q.** And the GI50 [27]?
**A.** > 100 µM (inactive)

**Q.** What about the GI50 [28] of the same compound?
**A.** > 100 µM (inactive)

**Q.** What about the GI50 [29] of the same compound?
**A.** > 100 µM (inactive)

**Q.** And the GI50 [30]?
**A.** > 100 µM (inactive)

**Q.** What about the GI50 [31] of the same compound?
**A.** > 100 µM (inactive)

**Q.** What about the GI50 [32] of the same compound?
**A.** > 100 µM (inactive)

**Q.** And the GI50 [33]?
**A.** > 100 µM (inactive)

**Q.** What about the GI50 [34] of the same compound?
**A.** > 100 µM (inactive)

**Q.** What about the GI50 [35] of the same compound?
**A.** > 100 µM (inactive)

**Q.** And the GI50 [36]?
**A.** > 100 µM (inactive)

**Q.** What about the GI50 [37] of the same compound?
**A.** > 100 µM (inactive)

**Q.** What about the GI50 [38] of the same compound?
**A.** > 100 µM (inactive)

**Q.** And the GI50 [39]?
**A.** > 100 µM (inactive)

**Q.** What about the GI50 [40] of the same compound?
**A.** > 100 µM (inactive)

**Q.** What about the GI50 [41] of the same compound?
**A.** > 100 µM (inactive)

**Q.** What about the GI50 [42] of the same compound?
**A.** > 100 µM (inactive)

**Q.** What about the GI50 [43] of the same compound?
**A.** > 100 µM (inactive)

**Q.** And the GI50 [44]?
**A.** 40.4 µM (inactive)

**Q.** And the GI50 [45]?
**A.** > 100 µM (inactive)

**Q.** And the GI50 [46]?
**A.** > 100 µM (inactive)

**Q.** What about the GI50 [47] of the same compound?
**A.** > 100 µM (inactive)

**Q.** What about the GI50 [48] of the same compound?
**A.** > 100 µM (inactive)

**Q.** And the GI50 [49]?
**A.** > 100 µM (inactive)

**Q.** And the GI50 [50]?
**A.** > 100 µM (inactive)

**Q.** And the GI50 [51]?
**A.** > 31.6 µM (inactive)

**Q.** And the GI50 [52]?
**A.** > 100 µM (inactive)

**Q.** What about the GI50 [53] of the same compound?
**A.** > 100 µM (inactive)

**Q.** What about the GI50 [54] of the same compound?
**A.** > 100 µM

**Q.** What about the GI50 [55] of the same compound?
**A.** > 100 µM (inactive)

**Q.** And the GI50 [56]?
**A.** > 100 µM (inactive)

**Q.** How did the GI50 [1] turn out when `CC(=O)Nc1ccccc1-c1cnc2ccccc2n1` was run?
**A.** > 100 µM (inactive)

**Q.** What about the GI50 [2] of the same compound?
**A.** > 100 µM (inactive)

**Q.** What about the GI50 [3] of the same compound?
**A.** > 100 µM (inactive)

**Q.** And the GI50 [4]?
**A.** > 100 µM (inactive)

**Q.** What about the GI50 [5] of the same compound?
**A.** > 100 µM (inactive)

**Q.** And the GI50 [6]?
**A.** > 100 µM (inactive)

**Q.** And the GI50 [7]?
**A.** > 100 µM (inactive)

**Q.** What about the GI50 [8] of the same compound?
**A.** > 100 µM (inactive)

**Q.** And the GI50 [9]?
**A.** > 100 µM (inactive)

**Q.** What about the GI50 [10] of the same compound?
**A.** > 100 µM (inactive)

**Q.** And the GI50 [11]?
**A.** > 100 µM (inactive)

**Q.** What about the GI50 [12] of the same compound?
**A.** > 100 µM (inactive)

**Q.** What about the GI50 [13] of the same compound?
**A.** > 100 µM (inactive)

**Q.** What about the GI50 [14] of the same compound?
**A.** > 100 µM (inactive)

**Q.** And the GI50 [15]?
**A.** > 100 µM (inactive)

**Q.** What about the GI50 [17] of the same compound?
**A.** > 100 µM (inactive)

**Q.** And the GI50 [18]?
**A.** > 100 µM (inactive)

**Q.** What about the GI50 [19] of the same compound?
**A.** > 100 µM (inactive)

**Q.** What about the GI50 [20] of the same compound?
**A.** > 100 µM (inactive)

**Q.** What about the GI50 [21] of the same compound?
**A.** > 100 µM (inactive)

**Q.** And the GI50 [22]?
**A.** > 100 µM (inactive)

**Q.** And the GI50 [23]?
**A.** > 100 µM (inactive)

**Q.** And the GI50 [24]?
**A.** > 100 µM (inactive)

**Q.** And the GI50 [25]?
**A.** > 100 µM (inactive)

**Q.** And the GI50 [57]?
**A.** > 100 µM (inactive)

**Q.** And the GI50 [26]?
**A.** > 100 µM (inactive)

**Q.** And the GI50 [27]?
**A.** > 100 µM (inactive)

**Q.** What about the GI50 [28] of the same compound?
**A.** > 100 µM (inactive)

**Q.** And the GI50 [29]?
**A.** > 100 µM (inactive)

**Q.** What about the GI50 [30] of the same compound?
**A.** > 100 µM (inactive)

**Q.** What about the GI50 [31] of the same compound?
**A.** > 100 µM (inactive)

**Q.** What about the GI50 [32] of the same compound?
**A.** 29.6 µM (inactive)

**Q.** And the GI50 [33]?
**A.** > 100 µM (inactive)

**Q.** And the GI50 [58]?
**A.** > 100 µM (inactive)

**Q.** And the GI50 [34]?
**A.** > 100 µM (inactive)

**Q.** And the GI50 [36]?
**A.** > 100 µM (inactive)

**Q.** What about the GI50 [38] of the same compound?
**A.** > 100 µM (inactive)

**Q.** What about the GI50 [39] of the same compound?
**A.** > 100 µM (inactive)

**Q.** And the GI50 [40]?
**A.** > 100 µM (inactive)

**Q.** What about the GI50 [41] of the same compound?
**A.** > 100 µM (inactive)

**Q.** What about the GI50 [42] of the same compound?
**A.** > 100 µM (inactive)

**Q.** And the GI50 [43]?
**A.** > 100 µM (inactive)

**Q.** What about the GI50 [44] of the same compound?
**A.** > 100 µM (inactive)

**Q.** And the GI50 [45]?
**A.** > 100 µM (inactive)

**Q.** And the GI50 [46]?
**A.** > 100 µM (inactive)

**Q.** And the GI50 [47]?
**A.** > 100 µM (inactive)

**Q.** And the GI50 [49]?
**A.** > 100 µM (inactive)

**Q.** What about the GI50 [50] of the same compound?
**A.** > 100 µM (inactive)

**Q.** And the GI50 [51]?
**A.** > 100 µM (inactive)

**Q.** And the GI50 [52]?
**A.** > 100 µM (inactive)

**Q.** And the GI50 [53]?
**A.** > 100 µM (inactive)

**Q.** And the GI50 [54]?
**A.** > 100 µM

**Q.** And the GI50 [55]?
**A.** > 100 µM (inactive)

**Q.** What about the GI50 [56] of the same compound?
**A.** > 100 µM (inactive)
